Entries after “also recorded” stand apart in the source; their conditions may differ. Like-named read-outs stand apart in the source and are kept apart here.
Key:
[1] = test system: sleep onset and sleep maintenance; details: three-month efficacy study, insomnia; cited from earlier work
[2] = test system: combined delta, theta and alpha activity; details: 160 minutes after administration; cited from earlier work
[3] = test system: time spent floating (immobility) in forced swim; test: Forced swim test; format: in vivo; details: mouse, single dose 10 mg/kg, 1 hour and 24 hours after drug delivery, vs vehicle treated control group
Description: The forced swim test is a frequently used behavioral protocol with a well-established therapeutic predictability for a broad range of antidepressants including ketamine (Porsolt et al. 1977; Cryan and Mombereau 2004; Cryan et al. 2005; Lucki et al. 2001). In this test the mouse is put in a beaker filled with water and the time spent struggling, swimming and floating is measured, with the time spent floating—when the mouse stops struggling to swim—being used as a behavioral correlate of depression.

[4] = test system: severe major depressive disorder; details: 490 patients, daily oral gaboxadol 5 mg or 10 mg added to escitalopram 20 mg; cited from earlier work
[5] = test system: suicidal ideation in major depressive disorder; test: Prospective randomized clinical trial of oral gaboxadol versus ketamine in patients at risk of suicide
[6] = test system: drug-evoked expression of the immediate early gene c-fos, whole mouse brain
Excerpt: A unique and novel approach to preclinical testing of psychiatric drugs is based on the proposition that a direct readout of drug-evoked brain activation or inhibition in an animal is the most relevant preclinical assay, because psychiatric drugs exert their effects via activation or inhibition of specific neural circuits and cell types in the brain. […] The method called “pharmacomapping” (implemented by Certerra, Inc. Farmingdale, N.Y.) is based on a largely automated drug-screening platform that comprises whole-brain detection of drug-evoked neuronal activation represented by drug-evoked expression of the immediate early gene (IEG) c-fos (Herrera and Robertson 1996). Until now, the detection of c-fos as a marker of brain activation has been done by laborious methods of in situ hybridization or immunohistochemistry in brain tissue sections, followed by mounting the sections on microscopic slides, manual imaging, and largely visual quantification. Nevertheless, over the last two decades a number of studies used these methods to test drug-evoked activity in the mouse or rat brain for various psychoactive medications, including antipsychotics, antidepressants, stimulants and anxiolytics (Engber et al., 1998; Kiss, 2018; Salminen et al., 1996; SEMBA et al., 1996; Slattery et al., 2005; Sumner et al., 2004).
In contrast to the older methods, the pharmacomapping method uses automated and standardized whole-brain immunostaining and brain clearing together with advanced microscopy (light-sheet fluorescence microscopy, LSFM), computational (e.g. machine learning) and statistical methods (FIG. 1). The first generation of this platform used serial two-photon tomography (STPT) as a method for imaging and c-fos-GFP mice expressing green fluorescent protein (GFP) under the control of the c-fos promoter (US 20140297199A1).

[7] = gaboxadol group vs ketamine group
[8] = acute single dose 10 mg/kg, 10 mg/kg

| Structure (SMILES) | effects in sleep onset and sleep maintenance [1] | whole head MEG planar gradiometer increase in combined delta, theta and alpha activity [2] | time spent floating (immobility) during 6 min forced swim [3] | benefit in treatment of severe major depressive disorder [4] | day 1 POMS total mood disturbance score [5, 7] | decrease in suicidal ideation at 230 minutes [5, 7] | proportion of responders on the SSI at day 1 [5, 7] | Cohen's d for the difference in mean group change (SSI) ([5]; gaboxadol group vs ketamine group, baseline to day 1) | average SSI score at day 1 ([5]; gaboxadol hydrochloride 0.85 mg/kg oral vs ketamine 0.5 mg/kg infusion, 24 hours) | drug-evoked brain activation (pharmacomap) ([6]; 3 mg/kg alone) | drug-evoked brain activation (pharmacomap) [6, 8] | drug-evoked brain activation (pharmacomap) ([6]; acute single dose 10 mg/kg, listed as Gaboxadol, 10 mg/kg) | drug-evoked brain activation (pharmacomap) ([6]; 6 mg/kg alone) | drug-evoked brain activation (pharmacomap) ([6]; acute single dose 5 mg/kg) | drug-evoked brain activation (pharmacomap) ([6]; acute single dose 100 mg/kg) |
| --- | --- | --- | --- | --- | --- | --- | --- | --- | --- | --- | --- | --- | --- | --- | --- |
| Oc1noc2c1CCNC2 [gaboxadol, 4,5,6,7-tetrahydroisoxazolo [5,4-c]pyridine-3-ol] | failed to show significant effects in sleep onset and sleep maintenance | ≥ +3 | nearly identical behavioral effect as the ketamine group; also recorded: significantly reduced the time spent in floating (immobility) | no additional benefit | greater improvement in the gaboxadol group compared with the ketamine group | greater in the gaboxadol group compared with the ketamine group | significantly higher in the gaboxadol group than the ketamine group | greater than medium effect size | lower in the gaboxadol group compared with the ketamine group | neither gaboxadol at 3 mg/kg nor ketamine at 6 mg/kg alone evoked any brain activation detectable | very similar brain activation as ketamine | broad brain activation that is highly similar to that of ketamine |  |  |  |
| CNC1(c2ccccc2Cl)CCCCC1=O (centres unmarked) [ketamine] |  |  | significantly decreases the time the drug treated mice spent floating; also recorded: significantly reduced the time spent in floating (immobility) |  |  |  |  |  |  |  | very robust and broad activation; also recorded: very broad activation pattern |  | neither gaboxadol at 3 mg/kg nor ketamine at 6 mg/kg alone evoked any brain activation detectable | modest activation | modest activation |

Source: patent publication US20220008398A1 (priority 2018, published 2022)
